The subject of experiment [1] is S. aureus MSSA-7 producing penicillinase PC-1. The experiment is described as follows: Broth microdilution MIC assay, partner piperacillin. The experiment is classed as cell-based. Conditions: Staphylococcus aureus, fixed piperacillin 4 μg/mL, read-out: MIC of Exemplary Compounds in presence of fixed β-lactams, Fixed Pip, S. aureus MSSA-7 PC-1. Background: Broth dilution looks for growth in wells or tubes with falling amounts of substance.

Experiment [2] addresses T1, VIM-2 (Escherichia coli, UniProt Q5U7L7).
T1 construct: made in house; host or cells: E. coli BL21(DE3)
The experiment is described as follows: β-Lactamase enzyme inhibition assay, VIM-2 (nitrocefin substrate). The experiment is classed as biochemical. Conditions: nitrocefin substrate 100 μM, 15 min preincubation at 37° C.; read-out: IC50, Class B VIM-2. The procedure, abridged: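 Purified VIM-2 (Q sepharose anion exchange, HEPES pH 7.5) preincubated with inhibitor 15 min at 37° C. Nitrocefin added at 100 μM final; absorbance at 486 nm monitored 10 min. IC50 from inhibition of initial hydrolysis rate versus inhibitor-free controls.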

The subject of experiment [3] is K. pneumoniae A-1797 expressing KPC-2 and VIM-4. Nature of the experiment: Broth microdilution MIC assay, partner meropenem. It is filed as cell-based. Particulars: Klebsiella pneumoniae, read-out: MIC of Exemplary Compounds in presence of fixed β-lactams, Fixed Mero, K.P. A-1797 KPC-2 VIM-4.
Experiment [4] deals with P. aeruginosa Ps296 expressing VIM-2. Nature of the experiment: Broth microdilution MIC assay, partner meropenem. Particulars: Pseudomonas aeruginosa, read-out: MIC of Exemplary Compounds in presence of fixed β-lactams, Fixed Mero, P. aerug. Ps296 VIM-2. The experiment is classed as cell-based.
Experiment [5] concerns E. coli ESBL4 expressing CTX-M-15. Nature of the experiment: Broth microdilution MIC assay, partner ceftazidime.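 Further: ceftazidime held fixed at 4 µg/mL.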 The experiment is classed as cell-based. Particulars: Escherichia coli, read-out: MIC of Exemplary Compounds in presence of fixed β-lactams, Fixed CAZ, E. coli ESBL4 CTX-M-15.
The subject of experiment [6] is E. cloacae 144200 expressing Class C P99 AmpC. Nature of the experiment: Broth microdilution MIC assay, partner ceftazidime.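 Further: ceftazidime held fixed at 4 µg/mL.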 Conditions: Enterobacter cloacae, read-out: MIC of Exemplary Compounds in presence of fixed β-lactams, Fixed CAZ, E. cl. 144200 p99 AmpC. It is filed as cell-based.
Experiment [7] relates to K. pneumoniae 156319 expressing KPC-3. Nature of the experiment: Broth microdilution MIC assay, partner meropenem. Conditions: Klebsiella pneumoniae, read-out: MIC of Exemplary Compounds in presence of fixed β-lactams, Fixed Mero, K.P. 156319 KPC-3. It is filed as cell-based.

This note sets out measurements from patent publication US9403850B2, “Beta-lactamase inhibitors” (priority 2013, dated 2016).

Take `O=C(N[C@H]1Cc2cccc(C(=O)O)c2OB1O)c1cnco1` [Example 52, (R)-2-Hydroxy-3-[(oxazole-5-carbonyl)-amino]-3,4-dihydro-2H-benzo[e][1,2]oxaborinine-8-carboxylic acid]: the MIC (as a rule, the smallest concentration in the dilution series that meets the test's criterion for growth inhibition) was less than 4 µg/mL in experiment [1]; greater than 32 µg/mL in experiment [3]; 8 to 32 µg/mL in experiment [4]; less than 4 µg/mL in experiment [5]; less than 4 µg/mL in experiment [6]; less than 4 µg/mL in experiment [7]. Further, the IC50 – broadly, the midpoint of a concentration-inhibition curve – in experiment [2] fell in the range of 100 to 1000 nM.

With `O=C(O)c1ccccc1C(=O)N[C@H]1Cc2cccc(C(=O)O)c2OB1O` [Example 53, (R)-3-(2-carboxybenzamido)-2-hydroxy-3,4-dihydro-2H-benzo[e][1,2]oxaborinine-8-carboxylic acid], the MIC in experiment [1] was less than 4 µg/mL; in experiment [3], 8 to 32 µg/mL; in experiment [4], greater than 32 µg/mL; in experiment [5] it was less than 4 µg/mL; in experiment [6], less than 4 µg/mL; in experiment [7] it was less than 4 µg/mL. Also, the IC50 in experiment [2] was 1000 to 10000 nM.

Turning to `NCCNC(=O)c1ccccc1C(=O)N[C@H]1Cc2cccc(C(=O)O)c2OB1O` [Example 54, (R)-3-(2-(2-aminoethylcarbamoyl)benzamido)-2-hydroxy-3,4-dihydro-2H-benzo[e][1,2]oxaborinine-8-carboxylic acid], the MIC was greater than 32 µg/mL in experiment [1]; greater than 32 µg/mL in experiment [3]; less than 4 µg/mL in experiment [4]; less than 4 µg/mL in experiment [5]; less than 4 µg/mL in experiment [6]; 8 to 32 µg/mL in experiment [7]. Further, the IC50 in experiment [2] was 1000 to 10000 nM.

Turning to `CC(C)NCc1cc(C(=O)N[C@H]2Cc3cccc(C(=O)O)c3OB2O)ccc1CN` [Example 55, (R)-3-(4-(aminomethyl)-3-((isopropylamino)methyl)benzamido)-2-hydroxy-3,4-dihydro-2H-benzo[e][1,2]oxaborinine-8-carboxylic acid], the MIC in experiment [1] was greater than 32 µg/mL; in experiment [3], greater than 32 µg/mL; in experiment [4], less than 4 µg/mL; in experiment [5] it was less than 4 µg/mL; in experiment [6], less than 4 µg/mL; in experiment [7], 8 to 32 µg/mL. Also, the IC50 in experiment [2] is 100 to 1000 nM.

Regarding `CC(C)NCc1ccc(C(=O)N[C@H]2Cc3cccc(C(=O)O)c3OB2O)cc1CNC(C)C` [Example 56, (R)-3-(3,4-bis((isopropylamino)methyl)benzamido)-2-hydroxy-3,4-dihydro-2H-benzo[e][1,2]oxaborinine-8-carboxylic acid], the MIC in experiment [1], in experiment [3], in experiment [4], in experiment [5], in experiment [6] and in experiment [7] was less than 4 µg/mL each time. In experiment [2], the IC50 was in the range of 100 to 1000 nM.

In the case of `NCCNc1ccc(CC(=O)N[C@H]2Cc3cccc(C(=O)O)c3OB2O)cc1` [Example 57, (R)-3-(2-(4-(2-aminoethylamino)phenyl)acetamido)-2-hydroxy-3,4-dihydro-2H-benzo[e][1,2]oxaborinine-8-carboxylic acid], the MIC in experiment [1] was less than 4 µg/mL; in experiment [3], less than 4 µg/mL; in experiment [4], less than 4 µg/mL; in experiment [5] it was less than 4 µg/mL; in experiment [6], less than 4 µg/mL; in experiment [7], 8 to 32 µg/mL. In addition, in experiment [2], the IC50 was in the range of 1000 to 10000 nM.

Consider `NCCOc1ccc(CC(=O)N[C@H]2Cc3cccc(C(=O)O)c3OB2O)cc1OCCN` [Example 58, (R)-3-(2-(3,4-bis(2-aminoethoxy)phenyl)acetamido)-2-hydroxy-3,4-dihydro-2H-benzo[e][1,2]oxaborinine-8-carboxylic acid], for which the MIC in experiment [1] was less than 4 µg/mL; in experiment [3], 8 to 32 µg/mL; in experiment [4], less than 4 µg/mL; in experiment [5], less than 4 µg/mL; in experiment [6] it was less than 4 µg/mL; in experiment [7], less than 4 µg/mL. Further, in experiment [2], the IC50 is 100 to 1000 nM.

Consider `NCCOc1ccc(CC(=O)N[C@H]2Cc3cccc(C(=O)O)c3OB2O)cc1O` [Example 59, (R)-3-(2-(4-(2-aminoethoxy)-3-hydroxyphenyl)acetamido)-2-hydroxy-3,4-dihydro-2H-benzo[e][1,2]oxaborinine-8-carboxylic acid], for which the MIC was less than 4 µg/mL in experiment [1]; 8 to 32 µg/mL in experiment [3]; less than 4 µg/mL in experiment [4]; less than 4 µg/mL in experiment [5]; less than 4 µg/mL in experiment [6]; less than 4 µg/mL in experiment [7]. Moreover, the IC50 in experiment [2] lay in the range of 100 to 1000 nM.

For `NCCNc1ccc(CC(=O)N[C@H]2Cc3cccc(C(=O)O)c3OB2O)cn1` [Example 60, (R)-3-(2-(6-(2-aminoethylamino)pyridin-3-yl)acetamido)-2-hydroxy-3,4-dihydro-2H-benzo[e][1,2]oxaborinine-8-carboxylic acid], the MIC was less than 4 µg/mL in experiment [1]; 8 to 32 µg/mL in experiment [3]; less than 4 µg/mL in experiment [4]; less than 4 µg/mL in experiment [5]; less than 4 µg/mL in experiment [6]; less than 4 µg/mL in experiment [7]. In experiment [2], the IC50 lay in the range of 100 to 1000 nM.

With `NCCNc1ccc(CC(=O)N[C@H]2Cc3cccc(C(=O)O)c3OB2O)c[n+]1[O-]` [Example 61, (R)-2-(2-aminoethylamino)-5-(2-(8-carboxy-2-hydroxy-3,4-dihydro-2H-benzo[e][1,2]oxaborinin-3-ylamino)-2-oxoethyl)pyridine 1-oxide], the MIC in experiment [1], in experiment [3], in experiment [4], in experiment [5], in experiment [6] and in experiment [7] was less than 4 µg/mL each time. Further, the 50% inhibitory concentration (IC50) in experiment [2] lay in the range of 100 to 1000 nM.

Turning to `NCc1cc(C(=O)N[C@H]2Cc3cccc(C(=O)O)c3OB2O)cnc1CN` [Example 62, (R)-3-(5,6-bis(aminomethyl)nicotinamido)-2-hydroxy-3,4-dihydro-2H-benzo[e][1,2]oxaborinine-8-carboxylic acid], the MIC in experiment [1], in experiment [3], in experiment [4], in experiment [5], in experiment [6] and in experiment [7] was less than 4 µg/mL throughout. Besides, the IC50 in experiment [2] was 100 to 1000 nM.

For the compound `NCc1cnc(C(=O)N[C@H]2Cc3cccc(C(=O)O)c3OB2O)cc1CN` [Example 63], the MIC in experiment [1], in experiment [3], in experiment [4], in experiment [5], in experiment [6] and in experiment [7] was less than 4 µg/mL in each case. Further, in experiment [2], the IC50 is less than 100 nM.
